Test results from PubChem BioAssay (NCI).
Several values for one entry are separate records, joined by “and”; a condition that tells them apart may be missing. Equal values may be shown once.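 Interpolation was linear, between the two tested concentrations surrounding the appropriate level; five concentrations were tested over 48 hours in 96-well plates. Here, GI50 denotes the concentration required for 50% inhibition of growth. At the TGI there is no net growth.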

Key:
Assay in all cases: growth of human tumour cells (NCI), 48 h
786-0 renal = test system: 786-0 renal
BT-549 breast = test system: BT-549 breast
CCRF-CEM leukemia = test system: CCRF-CEM leukemia
M14 melanoma = test system: M14 melanoma
MDA-MB-231 breast = test system: MDA-MB-231 breast
OVCAR-4 ovarian = test system: OVCAR-4 ovarian
RXF 393 renal = test system: RXF 393 renal
SW-620 colon = test system: SW-620 colon
UACC-62 melanoma = test system: UACC-62 melanoma
SF-295 CNS = test system: SF-295 CNS

SMILES: O=C(N/N=C1/C(=O)c2c3ccccc3cc3cccc1c23)c1cccc(Cl)c1
- TGI (786-0 renal): > 100 µM
- TGI (BT-549 breast): > 100 µM
- TGI (CCRF-CEM leukemia): > 100 µM
- TGI (M14 melanoma): > 100 µM
- TGI (MDA-MB-231 breast): > 100 µM
- TGI (OVCAR-4 ovarian): > 100 µM
- TGI (RXF 393 renal): > 100 µM
- TGI (SW-620 colon): > 100 µM
- TGI (UACC-62 melanoma): > 100 µM

SMILES: CC(C)CC(=O)NC(NC(C)C)(C(F)(F)F)C(F)(F)F
- TGI (786-0 renal): > 100 µM
- TGI (BT-549 breast): > 100 µM
- TGI (CCRF-CEM leukemia): > 100 µM
- TGI (MDA-MB-231 breast): > 100 µM
- TGI (OVCAR-4 ovarian): > 100 µM
- TGI (RXF 393 renal): > 100 µM
- TGI (SW-620 colon): > 100 µM
- TGI (UACC-62 melanoma): > 100 µM

SMILES: Nc1nc(NNc2ccc(Cl)c(Cl)c2)cc(=O)[nH]1
- TGI (786-0 renal): 67.5 µM
- TGI (BT-549 breast): 82.5 µM
- TGI (CCRF-CEM leukemia): > 100 µM
- TGI (M14 melanoma): > 100 µM
- TGI (MDA-MB-231 breast): > 100 µM
- TGI (OVCAR-4 ovarian): > 100 µM
- TGI (RXF 393 renal): 67.5 µM
- TGI (SF-295 CNS): > 100 µM
- TGI (SW-620 colon): 61.1 µM

SMILES: O=P1(Oc2ccc(Cl)cc2)OCCS1 (centres undefined)
- TGI (786-0 renal): > 100 µM
- TGI (BT-549 breast): > 100 µM
- TGI (CCRF-CEM leukemia): > 100 µM
- TGI (M14 melanoma): > 100 µM
- TGI (MDA-MB-231 breast): > 100 µM
- TGI (RXF 393 renal): > 100 µM
- TGI (SF-295 CNS): > 100 µM
- TGI (SW-620 colon): > 100 µM
- TGI (UACC-62 melanoma): > 100 µM

SMILES: O=C1c2nn(-c3ccccc3)nc2C(c2ccccc2)N1c1ccccc1 (centres undefined)
- TGI (786-0 renal): > 100 µM
- TGI (CCRF-CEM leukemia): > 100 µM
- TGI (M14 melanoma): > 100 µM
- TGI (OVCAR-4 ovarian): > 100 µM
- TGI (SF-295 CNS): > 100 µM
- TGI (SW-620 colon): > 100 µM
- TGI (UACC-62 melanoma): > 100 µM

SMILES: CN(C)CC(CO)(CN(C)C)CN(C)C
- TGI (786-0 renal): > 100 µM
- TGI (BT-549 breast): > 100 µM
- TGI (CCRF-CEM leukemia): > 100 µM
- TGI (M14 melanoma): > 100 µM
- TGI (OVCAR-4 ovarian): > 100 µM
- TGI (RXF 393 renal): > 100 µM
- TGI (SF-295 CNS): > 100 µM
- TGI (SW-620 colon): > 100 µM
- TGI (UACC-62 melanoma): > 100 µM

SMILES: CCOc1ccc2c(ccc(/C=C\c3cc(C)c4cccnc4c3O)[n+]2C)c1
- TGI (786-0 renal): 29.3 µM
- TGI (BT-549 breast): 38.1 µM
- TGI (M14 melanoma): 18.7 µM
- TGI (MDA-MB-231 breast): 0.632 µM
- TGI (OVCAR-4 ovarian): 18.6 µM
- TGI (RXF 393 renal): 18.9 µM
- TGI (SF-295 CNS): 20.7 µM
- TGI (SW-620 colon): 28 µM
- TGI (UACC-62 melanoma): 11.4 µM

SMILES: O=c1cc(CC(O)(C(F)(F)Cl)C(F)(F)Cl)[nH]n1-c1ccccc1
- TGI (786-0 renal): > 100 µM
- TGI (CCRF-CEM leukemia): > 100 µM
- TGI (M14 melanoma): > 100 µM
- TGI (MDA-MB-231 breast): > 100 µM
- TGI (OVCAR-4 ovarian): > 100 µM
- TGI (RXF 393 renal): > 100 µM
- TGI (SF-295 CNS): > 100 µM
- TGI (SW-620 colon): > 100 µM
- TGI (UACC-62 melanoma): > 100 µM

SMILES: CN1CCN(Cc2ccc(NC(=O)c3ccc(C#N)c(C#Cc4cnc(N)c5ncccc45)c3)cc2C(F)(F)F)CC1
- GI50 (BT-549 breast): 12.7 µM
- TGI (BT-549 breast): 41.9 µM
- GI50 (SF-295 CNS): 22.1 µM
- TGI (SF-295 CNS): 78.3 µM
- GI50 (UACC-62 melanoma): 1.73 µM
- TGI (UACC-62 melanoma): 3.26 µM

SMILES: c1ccc2c3c([nH]c2c1)C1c2[nH]c4ccccc4c2CCN1CC3
- TGI (786-0 renal): 25.8 µM
- TGI (BT-549 breast): 29.9 µM
- TGI (CCRF-CEM leukemia): > 100 µM
- TGI (MDA-MB-231 breast): 36.6 µM
- TGI (OVCAR-4 ovarian): 18.7 µM
- TGI (RXF 393 renal): 27 µM
- TGI (SF-295 CNS): 34.3 µM
- TGI (SW-620 colon): 45.5 µM
- TGI (UACC-62 melanoma): 33.9 µM

SMILES: O=C1C2CCC(C2)C12CC1(c3ccccc3)C(=O)c3ccccc3N1O2 (centres undefined)
- TGI (786-0 renal): > 100 µM
- TGI (CCRF-CEM leukemia): > 100 µM
- TGI (M14 melanoma): > 100 µM
- TGI (OVCAR-4 ovarian): > 100 µM
- TGI (RXF 393 renal): > 100 µM
- TGI (SF-295 CNS): > 100 µM
- TGI (SW-620 colon): > 100 µM
- TGI (UACC-62 melanoma): > 100 µM

SMILES: CCOc1ccc(/C=C/[N+](=O)[O-])cc1
- GI50 (CCRF-CEM leukemia): 3.23 µM
- TGI (CCRF-CEM leukemia): 52.3 µM
- GI50 (M14 melanoma): 2060 nM
- TGI (M14 melanoma): 4.24 µM
- GI50 (MDA-MB-231 breast): 7.91 µM
- TGI (MDA-MB-231 breast): 20.9 µM
- GI50 (OVCAR-4 ovarian): 23.4 µM
- TGI (OVCAR-4 ovarian): > 100 µM
- GI50 (RXF 393 renal): 1790 nM
- TGI (RXF 393 renal): 3.56 µM
- GI50 (SF-295 CNS): 19.2 µM
- TGI (SF-295 CNS): 41.8 µM
- GI50 (SW-620 colon): 3.15 µM
- TGI (SW-620 colon): 11.9 µM
- GI50 (UACC-62 melanoma): 13.8 µM
- TGI (UACC-62 melanoma): 27.2 µM

SMILES: CC12CC[C@H](O)C(C)(C)[C@H]1CC[C@](C)(O)C2COc1ccc2ccc(=O)oc2c1 (some centres undefined)
- TGI (786-0 renal): > 100 µM
- TGI (CCRF-CEM leukemia): > 100 µM
- TGI (M14 melanoma): > 100 µM
- TGI (OVCAR-4 ovarian): > 100 µM
- TGI (RXF 393 renal): > 100 µM
- TGI (SF-295 CNS): > 100 µM
- TGI (SW-620 colon): > 100 µM
- TGI (UACC-62 melanoma): > 100 µM

SMILES: COc1ccc(C2=NN(c3ccccc3)C(c3cc4cc(Br)ccc4nc3Cl)C2)cc1 (centres undefined)
- TGI (786-0 renal): > 25 µM
- TGI (BT-549 breast): > 25 µM
- TGI (CCRF-CEM leukemia): > 25 µM
- TGI (M14 melanoma): > 25 µM
- TGI (OVCAR-4 ovarian): > 25 µM
- TGI (RXF 393 renal): > 25 µM
- TGI (SF-295 CNS): > 25 µM
- TGI (SW-620 colon): > 25 µM

SMILES: Cc1ccc(S(=O)(=O)Oc2ccc(OS(=O)(=O)c3ccc(C)cc3)c3c2C(=O)c2ccccc2C3=O)cc1
- TGI (786-0 renal): > 100 µM
- TGI (BT-549 breast): > 100 µM
- TGI (CCRF-CEM leukemia): > 100 µM
- TGI (M14 melanoma): > 100 µM
- TGI (MDA-MB-231 breast): > 100 µM
- TGI (OVCAR-4 ovarian): > 100 µM
- TGI (RXF 393 renal): 68.6 µM
- TGI (SW-620 colon): > 100 µM
- TGI (UACC-62 melanoma): > 100 µM

SMILES: COc1ccc(-n2c(C)nc3ccc(NC4OCC(O)C(O)C4O)cc3c2=O)cc1 (centres undefined)
- TGI (786-0 renal): > 100 µM
- TGI (BT-549 breast): > 100 µM
- TGI (MDA-MB-231 breast): > 100 µM
- TGI (OVCAR-4 ovarian): > 100 µM
- TGI (RXF 393 renal): 81.9 µM and 87.8 µM
- TGI (SF-295 CNS): > 100 µM
- TGI (SW-620 colon): > 100 µM and 72.6 µM
- TGI (UACC-62 melanoma): > 100 µM

SMILES: COc1ccc([N-]/C(=N\n2c(=O)c(C)nn(C)c2=S)N(c2ccc(OC)cc2)c2nn3c(=O)c(C)n[n+](C)c3s2)cc1
- TGI (786-0 renal): > 100 µM
- TGI (CCRF-CEM leukemia): > 100 µM
- TGI (M14 melanoma): > 100 µM
- TGI (OVCAR-4 ovarian): > 100 µM
- TGI (RXF 393 renal): > 100 µM
- TGI (SF-295 CNS): > 100 µM
- TGI (SW-620 colon): > 100 µM
- TGI (UACC-62 melanoma): > 100 µM

SMILES: N=C(N)n1[nH]c2c(c1=O)CCCC2
- TGI (786-0 renal): > 100 µM
- TGI (CCRF-CEM leukemia): > 100 µM
- TGI (M14 melanoma): > 100 µM
- TGI (MDA-MB-231 breast): > 100 µM
- TGI (OVCAR-4 ovarian): > 100 µM
- TGI (RXF 393 renal): > 100 µM
- TGI (SF-295 CNS): > 100 µM
- TGI (SW-620 colon): > 100 µM
- TGI (UACC-62 melanoma): > 100 µM

SMILES: Cc1ccc(/C(=C/C=C(C#N)C#N)Sc2cc(Cl)ccc2Cl)cc1
- TGI (786-0 renal): 5.01 µM
- TGI (M14 melanoma): 16.4 µM
- TGI (MDA-MB-231 breast): 13 µM
- TGI (OVCAR-4 ovarian): 37.7 µM
- TGI (RXF 393 renal): 27.8 µM
- TGI (SF-295 CNS): 16 µM
- TGI (SW-620 colon): 22.5 µM
- TGI (UACC-62 melanoma): 15.3 µM

SMILES: O=c1c2ccccc2nc(-c2ccccc2)n1NC(=S)Nc1ccc(Cl)cc1[N+](=O)[O-]
- TGI (786-0 renal): > 100 µM
- TGI (CCRF-CEM leukemia): > 100 µM
- TGI (M14 melanoma): > 100 µM
- TGI (OVCAR-4 ovarian): > 100 µM
- TGI (RXF 393 renal): > 100 µM
- TGI (SF-295 CNS): > 100 µM
- TGI (SW-620 colon): > 100 µM
- TGI (UACC-62 melanoma): > 100 µM

SMILES: CC(C)c1cccc(C(C)C)c1NC(=O)C(=O)C(C(=O)c1ccc2ccccc2c1)C1OC(=O)c2ccccc21 (centres undefined)
- TGI (786-0 renal): > 100 µM
- TGI (CCRF-CEM leukemia): > 100 µM
- TGI (M14 melanoma): > 100 µM
- TGI (OVCAR-4 ovarian): > 100 µM
- TGI (RXF 393 renal): > 100 µM
- TGI (SF-295 CNS): > 100 µM
- TGI (SW-620 colon): > 100 µM
- TGI (UACC-62 melanoma): > 100 µM

SMILES: COc1ccc(C2ON(c3ccccn3)CC=C2C)cc1 (centres undefined)
- TGI (786-0 renal): > 100 µM
- TGI (CCRF-CEM leukemia): > 100 µM
- TGI (M14 melanoma): > 100 µM
- TGI (OVCAR-4 ovarian): > 100 µM
- TGI (RXF 393 renal): > 100 µM
- TGI (SF-295 CNS): > 100 µM
- TGI (SW-620 colon): > 100 µM
- TGI (UACC-62 melanoma): > 100 µM

SMILES: C=C(C)[C@@]1(O)CCC[C@H]1NC(=O)OC(C)(C)C
- TGI (786-0 renal): > 100 µM
- TGI (BT-549 breast): > 100 µM
- TGI (CCRF-CEM leukemia): > 100 µM
- TGI (M14 melanoma): > 100 µM
- TGI (MDA-MB-231 breast): > 100 µM
- TGI (OVCAR-4 ovarian): > 100 µM
- TGI (RXF 393 renal): > 100 µM
- TGI (SF-295 CNS): > 100 µM
- TGI (SW-620 colon): > 100 µM
